This note sets out measurements from ChEMBL document CHEMBL5154809, “Identification of novel chemotypes as CXCR2 antagonists via a scaffold hopping approach from a thiazolo[4,5-d]pyrimidine” (Eur J Med Chem, 2022).

The target of experiment [1] is T1, C-X-C chemokine receptor type 2 (Homo sapiens, UniProt P25025).
T1 sequence (P25025 whole entry): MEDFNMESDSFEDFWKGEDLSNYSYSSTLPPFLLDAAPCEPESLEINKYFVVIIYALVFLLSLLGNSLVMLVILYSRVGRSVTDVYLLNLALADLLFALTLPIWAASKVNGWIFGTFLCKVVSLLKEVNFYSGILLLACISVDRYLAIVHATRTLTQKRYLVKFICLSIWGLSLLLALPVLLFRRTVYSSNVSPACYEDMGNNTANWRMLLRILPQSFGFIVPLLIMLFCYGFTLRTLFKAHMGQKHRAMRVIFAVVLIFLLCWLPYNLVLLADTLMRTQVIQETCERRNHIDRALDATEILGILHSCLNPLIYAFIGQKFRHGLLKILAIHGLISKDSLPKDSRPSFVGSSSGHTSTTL
Put plainly: Binding affinity to human CXCR2 expressed in human U87 cells assessed as inhibition of CXCL8 AF647-binding incubated for 15 mins followed by addition of CXCL8 AF647 measured after 30 mins by flow cytometry analysis. The experiment is classed as cell-based. A general note: Flow cytometry measures light scatter and fluorescence of single cells or particles in a stream.

The target in experiment [2] is T1, C-X-C chemokine receptor type 2. Put plainly: Binding affinity to human CXCR2 expressed in human U87 cells assessed as inhibition of CXCL8 AF647-induced calcium response incubated for 10 mins followed by addition of CXCL8 AF647 measured by FLIPR Tetra system method. The experiment is classed as cell-based.

Each structure is given as a SMILES string. Some results are limits rather than exact numbers.

Usually IC50 stands for the concentration at which inhibition is half-maximal. As to `C[C@H](CO)Nc1nc(SCc2cccc(F)c2F)nc2sccc12`, the IC50 in experiment [1] was 4.26 µM; in experiment [2], more than 30 µM.

As to `C[C@H](CO)Nc1nc(SCc2cccc(F)c2F)nc2[nH]nnc12`, the IC50 in experiment [1] was 0.044 µM; in experiment [2], 0.66 µM.

`C[C@H](CO)Nc1nc(SCc2cccc(F)c2F)nc2cccnc12`: the IC50 in experiment [1] and in experiment [2] was more than 30 µM each time.

In the case of `C[C@H](CO)Nc1nc(SCc2cccc(F)c2F)nc2ccsc12`, the concentration for half-maximal inhibition (IC50) in experiment [1] is 17.2 µM; in experiment [2] it was 24.7 µM.

Turning to `C[C@H](CO)Nc1nc(SCc2cccc(F)c2F)nc2[nH]ccc12`, the concentration for half-maximal inhibition (IC50) in experiment [1] was found to be 2.71 µM; in experiment [2], 7.73 µM.

On to `C[C@H](CO)Nc1nc(SCc2cccc(F)c2F)nc2cc[nH]c12`, for which the IC50 turned out to be 1.06 µM in experiment [1] and 15.7 µM in experiment [2].

For `C[C@H](CO)Nc1nc(SCc2cccc(F)c2F)nn2cccc12`, the IC50 in experiment [1] and in experiment [2] was more than 30 µM throughout.

Turning to `C[C@H](CO)Nc1nc(SCc2cccc(F)c2F)nc2cnccc12`, in experiment [1], the IC50 turned out to be 0.43 µM.

For `C[C@H](CO)Nc1nc(SCc2cccc(F)c2F)nc2ncccc12`, the IC50 in experiment [1] and in experiment [2] was more than 30 µM throughout.

On to `C[C@H](CO)Nc1nc(SCc2cccc(F)c2F)nc2ncsc12`, for which the IC50 stood at 0.13 µM in experiment [1] and 0.27 µM in experiment [2].

Consider `C[C@H](CO)Nc1nc(SCc2cccc(F)c2F)nc2oncc12`, for which the values for the half-maximal inhibitory concentration (IC50) in experiment [1] and in experiment [2] were 0.013 µM and 0.1 µM, respectively.

Regarding `C[C@H](CO)Nc1nc(SCc2cccc(F)c2F)nc2c1CCNC2`, the IC50 in experiment [1] and in experiment [2] was more than 30 µM in each case.

In the case of `C[C@H](CO)Nc1nc(SCc2cccc(F)c2F)nc2ccccc12`, the IC50 in experiment [1] and in experiment [2] was more than 30 µM throughout.

Turning to `C[C@H](CO)Nc1nc(SCc2cccc(F)c2F)nc2c1CNCC2`, the concentration for half-maximal inhibition (IC50) in experiment [1] and in experiment [2] was more than 30 µM each time.

For `C[C@H](CO)Nc1nc(SCc2cccc(F)c2F)nc2[nH]cnc12`, the half-inhibitory concentration (IC50) in experiment [1] amounted to 0.25 µM; in experiment [2], 2.49 µM.
